The test system of assay [1] is hiPSC-VSMCs. As to the kind of experiment: Contractility of hiPSC-VSMCs in response to vasoactive agents. The assay is classed as cell-based, human. The settings on record: hiPSC-VSMCs treated with agent; FIG. 6B. The text has this:
(§1) A significant difference also between cells treated with carbachol and potassium chloride was observed (FIG. 6B).

The subject of assay [2] is hiPSC-VSMCs. Briefly: Intracellular calcium flux (Fluo4 fluorescence) in hiPSC-VSMCs. The format is cell-based, human. Conditions: FIG. 6A.
Description: as §1
Background: Calcium assays in cells follow changes in intracellular calcium, usually with a dye or a luminescent sensor.

Each structure is given as a SMILES string.

Regarding `[Cl-].[K+]` [KCl, potassium chloride], in assay [1], the contractility entry was “significantly increased contractility”.
Turning to `C[N+](C)(C)CCOC(N)=O` [carbachol], the “Fluo4 fluorescence (intracellular calcium flux)” value in assay [2] is “dramatic increase”. For the same compound, the contractility entry in assay [1] is on record as “significantly increased contractility”.

The record behind these values is patent US20230147855A1, “METHODS OF GENERATING PLURIPOTENT STEM CELL-DERIVED VASCULAR SMOOTH MUSCLE CELLS, USES, AND COMPOSITION RELATED THERETO” (EMORY UNIVERSITY, priority 2020, published 2023).
